In patent US8067042B1 (Mutual Pharmaceutical Company, Inc., priority 2007, dated 2011):

Legend:
CYP1A2 = molecular target: T1, CYP1A2 (Homo sapiens, UniProt P05177); format: in vitro ADME; details: 50 μM megestrol acetate, microsomes
T1 sequence (P05177 1-516): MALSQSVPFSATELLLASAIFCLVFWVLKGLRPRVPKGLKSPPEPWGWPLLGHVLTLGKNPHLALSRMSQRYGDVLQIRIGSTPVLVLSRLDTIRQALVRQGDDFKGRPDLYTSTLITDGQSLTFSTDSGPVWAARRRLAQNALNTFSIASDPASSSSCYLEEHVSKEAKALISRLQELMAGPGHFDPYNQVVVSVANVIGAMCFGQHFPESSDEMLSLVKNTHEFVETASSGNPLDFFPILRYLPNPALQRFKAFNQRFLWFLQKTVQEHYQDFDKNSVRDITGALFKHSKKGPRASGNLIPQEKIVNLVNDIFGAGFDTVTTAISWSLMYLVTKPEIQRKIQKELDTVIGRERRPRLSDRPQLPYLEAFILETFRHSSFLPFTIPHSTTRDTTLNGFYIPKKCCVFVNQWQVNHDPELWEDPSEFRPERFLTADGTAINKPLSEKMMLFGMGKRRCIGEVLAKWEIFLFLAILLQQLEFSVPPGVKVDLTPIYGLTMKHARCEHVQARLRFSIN

CYP2C8 [1] = format: in vitro ADME; details: 50 μM megestrol acetate, microsomes, quercetin
CYP2C19 [2] = molecular target: T2, CYP2C19 (Homo sapiens, UniProt P33261); format: in vitro ADME; details: 50 μM megestrol acetate, microsomes
T2 sequence (P33261 whole entry): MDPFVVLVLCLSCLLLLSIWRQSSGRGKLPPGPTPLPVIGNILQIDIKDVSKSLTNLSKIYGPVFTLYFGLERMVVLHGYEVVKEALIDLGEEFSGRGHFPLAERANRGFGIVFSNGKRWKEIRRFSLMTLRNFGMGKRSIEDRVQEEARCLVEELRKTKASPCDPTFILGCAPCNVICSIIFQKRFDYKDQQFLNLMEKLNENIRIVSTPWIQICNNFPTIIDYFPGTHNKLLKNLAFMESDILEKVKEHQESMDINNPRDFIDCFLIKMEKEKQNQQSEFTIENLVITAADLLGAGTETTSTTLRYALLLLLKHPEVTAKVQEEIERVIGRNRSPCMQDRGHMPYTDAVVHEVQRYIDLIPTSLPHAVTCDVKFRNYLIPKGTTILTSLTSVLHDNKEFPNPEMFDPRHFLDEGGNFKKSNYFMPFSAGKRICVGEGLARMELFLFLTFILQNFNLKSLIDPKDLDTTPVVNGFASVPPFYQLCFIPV

CYP2E1 [3] = format: in vitro ADME; details: 50 μM megestrol acetate, microsomes, diethyldithiocarbamate
CYP3A4 [4] = molecular target: T3, CYP3A4 (Homo sapiens, UniProt P08684); format: in vitro ADME; details: 50 μM megestrol acetate, microsomes, ketoconazole
Target sequence in this assay (P08684 whole entry): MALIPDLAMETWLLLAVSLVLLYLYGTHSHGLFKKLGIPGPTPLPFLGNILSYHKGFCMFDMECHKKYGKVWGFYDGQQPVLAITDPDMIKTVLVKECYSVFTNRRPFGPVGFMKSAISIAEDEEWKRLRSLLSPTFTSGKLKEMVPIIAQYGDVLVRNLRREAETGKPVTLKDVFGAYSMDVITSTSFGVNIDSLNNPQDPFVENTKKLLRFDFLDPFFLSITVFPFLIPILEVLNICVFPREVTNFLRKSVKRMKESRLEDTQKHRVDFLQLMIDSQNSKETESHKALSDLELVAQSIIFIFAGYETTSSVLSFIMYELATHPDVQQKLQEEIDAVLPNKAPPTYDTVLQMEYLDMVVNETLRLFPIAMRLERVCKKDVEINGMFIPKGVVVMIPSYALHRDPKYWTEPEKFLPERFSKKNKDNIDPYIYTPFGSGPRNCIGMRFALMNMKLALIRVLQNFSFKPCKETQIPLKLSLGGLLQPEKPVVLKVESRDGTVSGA

CYP2E1 [5] = tested on: CYP2E1
Description: (§1) The stock solutions were added to incubation mixtures to obtain the final concentrations of 5 and 50 μM, each containing 1% acetonitrile.
(§2) After a 5 minute preincubation, nicotinamide adenine dinucleotide phosphate (NADPH) regenerating system (NRS; 1.7 mg/mL β-NADP, 7.8 mg/mL glucose-6-phosphate, and 6 units/mL glucose-6-phosphate dehydrogenase in 2% sodium bicarbonate solution) was added to initiate the reaction. The final incubation volume was 0.5 mL. Incubations were continued for 60 minutes.
(§3) All incubations were conducted at 37±1° C. in a shaking water bath. All incubations were carried out in triplicates.
(§4) After a 5-minute preincubation, 2% sodium bicarbonate solution was added to the incubation mixtures. The final incubation volume was 0.5 mL. Incubations were continued for 60 minutes.
(§5) Incubation reactions, including the matrix controls and metabolic negative controls, were terminated by adding 0.5 mL methanol.
(§6) The samples were analyzed on a Supelcosil LC-18 column (3μ, 120 Å, 3.0×100 mm).

CYP3A4 [6] = molecular target: T3, CYP3A4
Target sequence in this assay (P08684 whole entry): as above
Description: as §1, §2, §3, §4, §5, §6

CYP2B6 [7] = molecular target: T4, CYP2B6 (Homo sapiens, UniProt P20813); details: 50 μM megestrol acetate, microsomes, CYP2B6 inhibitor
T4 sequence (P20813 1-491): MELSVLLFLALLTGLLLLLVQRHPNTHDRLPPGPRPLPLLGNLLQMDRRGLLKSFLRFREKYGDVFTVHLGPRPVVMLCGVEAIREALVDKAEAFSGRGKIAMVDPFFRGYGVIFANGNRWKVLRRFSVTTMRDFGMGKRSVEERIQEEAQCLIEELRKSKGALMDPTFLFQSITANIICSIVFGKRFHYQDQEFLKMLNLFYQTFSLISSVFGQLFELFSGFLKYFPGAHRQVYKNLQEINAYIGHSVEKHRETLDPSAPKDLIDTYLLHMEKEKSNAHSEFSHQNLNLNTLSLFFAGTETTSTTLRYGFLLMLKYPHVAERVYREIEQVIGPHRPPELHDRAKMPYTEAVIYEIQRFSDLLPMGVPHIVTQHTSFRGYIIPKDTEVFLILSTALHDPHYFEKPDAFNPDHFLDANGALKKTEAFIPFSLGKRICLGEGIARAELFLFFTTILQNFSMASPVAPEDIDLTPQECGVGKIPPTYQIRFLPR

CYP2B6 [8] = molecular target: T4, CYP2B6; format: in vitro ADME; parameters: purchased BD Biosciences Discovery Labware, Woburn, Mass; host or cells: baculovirus-infected insect cells; details: 50 μM megestrol acetate, 20 pmol CYP2B6
CYP2C8 [9] = molecular target: T5, CYP2C8 (Homo sapiens, UniProt P10632); format: in vitro ADME; parameters: purchased BD Biosciences Discovery Labware, Woburn, Mass; host or cells: baculovirus-infected insect cells; details: 50 μM megestrol acetate, 20 pmol CYP2C8
T5 sequence (P10632 1-490): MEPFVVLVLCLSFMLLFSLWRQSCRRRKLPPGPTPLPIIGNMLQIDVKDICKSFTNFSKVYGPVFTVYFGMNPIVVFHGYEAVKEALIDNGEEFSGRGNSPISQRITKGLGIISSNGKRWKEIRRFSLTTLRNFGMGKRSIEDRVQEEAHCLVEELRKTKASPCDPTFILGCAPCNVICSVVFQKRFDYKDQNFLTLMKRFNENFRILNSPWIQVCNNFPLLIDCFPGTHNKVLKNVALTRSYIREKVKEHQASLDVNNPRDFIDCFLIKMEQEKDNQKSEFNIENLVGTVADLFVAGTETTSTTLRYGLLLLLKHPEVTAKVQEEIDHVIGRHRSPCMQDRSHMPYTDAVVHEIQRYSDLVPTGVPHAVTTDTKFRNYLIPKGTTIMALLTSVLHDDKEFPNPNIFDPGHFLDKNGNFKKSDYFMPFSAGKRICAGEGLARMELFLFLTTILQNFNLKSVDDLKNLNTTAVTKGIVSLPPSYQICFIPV

CYP2C19 [10] = molecular target: T2, CYP2C19; format: in vitro ADME; parameters: purchased BD Biosciences Discovery Labware, Woburn, Mass; host or cells: baculovirus-infected insect cells; details: 50 μM megestrol acetate, 20 pmol CYP2C19
CYP2E1 [11] = molecular target: CYP2E1 (Homo sapiens, UniProt P05181); format: in vitro ADME; parameters: purchased BD Biosciences Discovery Labware, Woburn, Mass; host or cells: baculovirus-infected insect cells; details: 50 μM megestrol acetate, 20 pmol CYP2E1
CYP2E1 (Homo sapiens, UniProt P05181), sequence (P05181 whole entry): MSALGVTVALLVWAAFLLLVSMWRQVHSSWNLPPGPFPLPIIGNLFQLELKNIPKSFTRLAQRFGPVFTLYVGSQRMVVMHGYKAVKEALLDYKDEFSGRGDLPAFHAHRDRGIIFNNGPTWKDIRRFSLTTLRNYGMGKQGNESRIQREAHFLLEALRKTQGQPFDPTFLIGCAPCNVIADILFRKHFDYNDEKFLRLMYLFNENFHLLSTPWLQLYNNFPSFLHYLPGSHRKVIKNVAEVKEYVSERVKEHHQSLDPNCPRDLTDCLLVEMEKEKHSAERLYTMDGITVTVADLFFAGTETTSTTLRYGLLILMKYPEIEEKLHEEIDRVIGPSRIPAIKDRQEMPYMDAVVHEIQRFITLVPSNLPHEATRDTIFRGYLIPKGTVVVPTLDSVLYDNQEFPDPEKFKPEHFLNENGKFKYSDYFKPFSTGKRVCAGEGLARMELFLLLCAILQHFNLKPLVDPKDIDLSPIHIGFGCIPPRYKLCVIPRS

CYP3A4 [12] = molecular target: T3, CYP3A4; format: in vitro ADME; parameters: purchased BD Biosciences Discovery Labware, Woburn, Mass; host or cells: baculovirus-infected insect cells; details: 50 μM megestrol acetate, 20 pmol CYP3A4
Target sequence in this assay (P08684 2-503 limits assumed): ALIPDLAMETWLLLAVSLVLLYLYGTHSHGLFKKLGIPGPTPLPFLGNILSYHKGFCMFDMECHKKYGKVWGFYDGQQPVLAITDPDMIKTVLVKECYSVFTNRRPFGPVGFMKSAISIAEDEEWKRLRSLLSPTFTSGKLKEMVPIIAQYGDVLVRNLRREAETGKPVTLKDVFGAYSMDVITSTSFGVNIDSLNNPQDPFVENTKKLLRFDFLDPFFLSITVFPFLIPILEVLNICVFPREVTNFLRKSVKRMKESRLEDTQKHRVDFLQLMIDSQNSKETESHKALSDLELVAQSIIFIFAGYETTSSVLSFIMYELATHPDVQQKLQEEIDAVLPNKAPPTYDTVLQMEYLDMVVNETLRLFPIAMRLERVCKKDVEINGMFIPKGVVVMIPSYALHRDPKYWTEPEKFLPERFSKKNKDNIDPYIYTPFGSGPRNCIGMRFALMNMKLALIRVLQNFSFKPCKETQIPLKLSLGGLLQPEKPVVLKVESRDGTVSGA

[13] = human, microsomes, 60 min, pH 7.4

For CC(=O)O[C@]1(C(C)=O)CC[C@H]2[C@@H]3C=C(C)C4=CC(=O)CC[C@]4(C)[C@H]3CC[C@@]21C [Megestrol Acetate, 17 α-acetyloxy-6-methylpregna-4,6-diene-3,20-dione], the “difference in metabolism in the presence or absence of the inhibitor (LC/MS)” value (shortened to “difference … of the inhibitor (LC/MS)”) (CYP1A2) was “no significant difference in metabolism”, the “difference … of the inhibitor (LC/MS)” value (CYP2C8 [1]) was “a significant difference in metabolism” and the “difference … of the inhibitor (LC/MS)” value (CYP2C19 [2]) was “no significant difference in metabolism”. For the same compound, the “difference … of the inhibitor (LC/MS)” value (CYP2E1 [3]) was “a significant difference in metabolism”, the “difference … of the inhibitor (LC/MS)” value (CYP3A4 [4]) was “a significant difference in metabolism” and the “percent metabolized in presence vs absence of inhibitor (unpaired two-tailed t-test)” value (CYP2A6) was “less than that of the percentage of megestrol acetate metabolized in the absence of the inhibitor”. The “metabolized in pooled human liver microsomes” value (CYP2A6; [13]) was over 20%, the “percent metabolized in presence vs absence of inhibitor (unpaired two-tailed t-test)” value (CYP2E1 [5]) was “less than that of the percentage of megestrol acetate metabolized in the absence of the inhibitor” and the “metabolized in pooled human liver microsomes” value (CYP2E1 [5]; [13]) was over 20%. The “percent metabolized in presence vs absence of inhibitor (unpaired two-tailed t-test)” value (CYP3A4 [6]) was “less than that of the percentage of megestrol acetate metabolized in the absence of the inhibitor”, the “metabolized in pooled human liver microsomes” value (CYP3A4 [6]; [13]) was over 20% and the “difference … of the inhibitor (LC/MS)” value (CYP2B6 [7]) was “no significant difference in metabolism”. The metabolites observed (CYP2B6 [8]) was 1.23%, the “megestrol acetate converted to its metabolites” value (CYP2C8 [9]) was 0.72% and the metabolites detected (CYP2C19 [10]) was 1.14%. The metabolites formed (CYP2E1 [11]) was “no metabolites were detected” and the “metabolism of megestrol acetate by mass spectrometric methods” value (CYP3A4 [12]) was “More than 50%”.
